Results on one compound are retold here after patent US10478464B2, “Compositions and methods of use” (priority 2009, dated 2019).

Each structure is given as a SMILES string.

Experiment [1] has as its system colorectal cancer cell lines (HCT-116, HCT-15, KM12). The experiment can be described thus: NCI 60 human tumor cell line screen (MTT), colorectal lines. As to conditions: 10 μM; three out of 7 lines.
The subject of experiment [2] is HOP92 cells. The experiment can be described thus: Lung cancer xenograft mouse model (HOP92). Conditions: for Mean ± SEM Tumor Volume (HOP-92): 10 mg/kg IP. Format: in vivo, BALB/c nu/nu mice. The source says: The purpose of this study was to determine anti tumor efficacy of 8-HHA in lung cancer using HOP92 cells.
Animals and care: Thirty BABL/c nude, non-pregnant and nulliparous female mice that are 5-6 weeks old and weighing 16-20 gms were used in this study. BALB/c nu/nu mice were used because they have been historically used in xenograft studies to test anti-tumor efficacy of drug candidates. Mice were acclimatized for minimum 5 days, under same conditions as for the actual test. Mice were housed at room temperature 68±5° F. with room Relative Humidity of 30-70%, air Exchanges per Hour of a minimum of 10 changes per hour, lights exposure of 12-hour light/dark cycle, full spectrum fluorescent lights. The mice were housed in groups in ventilated micro-isolator cages made up of polycarbonate. The mice were using autoclaved laboratory grade bedding and were provided ad libitum with irradiated pellets and autoclaved water. There were no known contaminants present in the feed, water, or bedding expected to interfere with the test data. The laboratory and animal rooms were maintained as limited-access facilities.
Route of injection and dose: 8-HHA was administered through intraperitoneal (IP) injection.
Tumor Induction: The cell line HOP92 were cultured according to recommended specifications at Vanas Oncology as above discussed in Example 20. Cells were trypizinized and counted using the Trypan-blue viability test using a hemocytometer. Cell counts in quadrants of the hemocytometer were converted to a cells/mL value, which will enable isolation of the appropriate number of cells per mouse. Each mouse was inoculated subcutaneously in the right flank region with 0.2 mL of a 50% RPMI/50% Matrigel™ mixture containing a suspension of tumor cells (5×10^6 cells/mouse). Tumors were observed twice weekly until well established. Tumor volume was calculated using the formula: Tumor weight (mg)=(a×b^2/2) where ‘b’ is the smallest diameter and ‘a’ is the largest diameter in millimeters.
Allocation of Animals: Once the established tumors reach a mean calculated volume of approximately 50-100 mg, the mice were randomized, using appropriate software, into treatment groups in order to reduce the variability of tumor sizes per group.
Pre Dose Procedure: Acclimated animals were weighed and observed for clinical signs of toxicity prior to dosing on Day 1.
The first day of dosing is Day 1. On Day 1,8-HHA, and vehicle injections are administered according to the study design in Table 9 below.
Post Dose Procedure: Following treatment, tumor and mouse body weight measurements were recorded twice weekly and gross observation was made at least once daily. Mice with tumors that were not palpable was considered complete regressions. Percentage of mice mortality and time of death were recorded for every group in the study. Animals may be defined as moribund and sacrificed if one or more of the following criteria are met: • Loss of body weight of 20% or greater in a 1 week period. • Mice that inhibit normal physiological function such as eating, drinking, mobility, and ability to urinate and/or defecate. • Tumors that exceed a maximum size of 2000 mg as measured by calipers. • Ulcerated tumors, or tumors that bleed or produce exudates. • Prolonged, excessive diarrhea leading to excessive weight loss (>20%). • Persistent wheezing and respiratory distress. • Prolonged or excessive pain or distress as defined by clinical observations such as: prostration, hunched posture, paralysis/paresis, distended abdomen, ulcerations, abscesses, seizures, and/or hemorrhages.

Take `CCCCCCCCC(O)CCCCCCC(=O)O` (racemic) [Sample 8-HHA, 8-hydroxy-palmitic acid]: the “growth suppression of colorectal cancer cell lines, in words” value in experiment [1] is reported as “moderate evidence of growth suppression”. Besides, the entries for the “Mean ± SEM Tumor Volume (HOP-92)” value in experiment [2] (Day 16) and in experiment [2] (Day 18) were 88.78±28.61 mm^3 and 82.02±25.93 mm^3, respectively. Also, the “decrease in tumor volume vs control group” value in experiment [2] (T1 10 mg/Kg, day 16) was found to be 58.6%; in experiment [2] (T1 10 mg/Kg, day 18), 68.2%; in experiment [2] (T2 100 mg/Kg, day 16), 56.5%; in experiment [2] (T2 100 mg/Kg, day 18), 73.1%. The “tumor growth inhibition, in words” value in experiment [2] (both T1 (10 mg/Kg) and T2 (100 mg/Kg)) was “significantly inhibited tumor growth in mice from day 16”.
